Data reported in paper PMC11927960, “Multiparameter ranking of carbazoles for anti-trypanosome lead discovery” (Frontiers in drug discovery, 2024).
Where two headings read alike, the source gives them in different places.

What was measured:
[1] = Human liver microsome intrinsic clearance (HLM Clint); assay type: in vitro ADME; details: human liver microsomes, 37 °C
Experimental: Intrinsic metabolic clearance.
The test compound was added to a final concentration of 1 μM, and the residual concentrations were tracked with LC-MS/MS at defined time points.

T. brucei Lister427 [2] = assay: Delayed trypanocidal assay (6 h exposure, wash-off); assay type: cell-based, Trypanosoma brucei; details: for DTC25 (Figure 1) / DTC50 (Figure 1) / DTC90 (Figure 1): 5 × 10^5/mL, 6 h, wash, 24 h drug-free, unit not given; for DTC50 (concentration causing 50% cidality): 6-h treatment and wash-off
Experimental: Trypanosomes were washed, enumerated with a Coulter Counter, and transferred into a drug-free HMI-9 medium for 24 h in a 24-well plate (1 × 10^5 cells/mL). After 24 h, cells were enumerated with a Coulter counter (see flow-chart). Data obtained were analyzed using GraphPad Prism to determine DTC25, DTC50, and DTC90 values.
Delayed trypanocidal assay
Mid-logarithmic growth-phase T. b. Lister427 were inoculated into HMI-9 medium (5 × 10^5 cell/mL). Cells were incubated with either 0.1% DMSO (vehicle) or serial dilutions of drug in 24-well plates for 6 h at 37 °C/5% CO2, following which trypanosomes were pelleted (3,000 g, 5 min), rinsed with drug-free HMI-9 medium, and cells enumerated with a Coulter counter. Trypanosomes were then inoculated at 1 × 10^5 cells/mL in 24-well-plates or 384-well plates and cultured for 24 h, after which trypanosomes were checked for viability with a hemocytometer and enumerated with a Coulter counter. Each experiment was performed thrice, and non-linear regression graphs plotted with GraphPad Prism were used to obtain DTC50 values ([Bachovchin et al., 2019]).

[3] = Brain accumulation (brain to plasma concentration ratio); details: Swiss Webster, mouse
Experimental: The plasma concentration and tissue distribution of drugs were determined by Absorption Systems. […] Blood and brain samples were obtained at 1, 2, 4, and 6 h post-dosing, and plasma and brain concentrations of the drug were determined using LC-MS/MS. Stock standards for calibration were prepared in a matrix comprising equal volumes of water and mouse blood containing K2-EDTA as an anticoagulant. Working solutions were prepared in 50:50 acetonitrile–water and added to the matrix to final concentrations of 1,000, 500, 100, 50.0, 10.0, 5.00, 1.00, and 0.500 ng/mL for all compounds. Pharmacokinetic parameters were determined using Phoenix WinNonlin (v8.0) software with sparse sampling. Maximum plasma concentration (Cmax) and the time to reach maximum plasma concentration (tmax) were determined from the four data points. The area under the time concentration curve (AUClast) was calculated using the linear trapezoidal rule with calculation to a 6-h data point. Plasma half-life (t1/2) was calculated from 0.693/slope of the terminal elimination phase. Samples below the limit of detection (0.500 ng/mL) were treated as 0. […]
or CBL0187, respectively. Blood and brain samples were obtained at 1, 2, 4, and 6 h post-dosing, and plasma and brain concentrations of the carbazoles were determined using LC-MS/MS. (A) Brain tissue concentrations of curaxins at different time points (B) Ratios of […]
male and female Swiss-wester mice. […]

[4] = tested on: protein synthesis in Trypanosoma brucei; assay: Protein synthesis (HPG incorporation); assay type: cell-based; details: for Protein Synthesis affected: DTC50 as printed in Table S3; for Effect on protein synthesis: DTC90; for Residual Translation: DTC90 of curaxin 15 min, then 60 min HPG, 1 minus inhibition vs DMSO
Experimental: FIGURE 3 Effect of curaxins on protein synthesis in Trypanosoma brucei: T. b. brucei (5 × 10^5/mL) was treated with DMSO (D: 0.1%), DTC90 of CBL0174 ([…]), or CBL0187 (600 nM) for 15 min, followed by 60-min incubation with L-Homopropargylglycine (HPG; 4 μM). Incorporated HPG was clicked to azide-Alexa Fluor-488. […] (A) Proteins were transferred to the PVDF membrane and stained for total protein (using LI-COR® Revert™ 700 Total Protein Stain). (B) The membrane was blocked with Intercept® (PBS) blocking buffer and reacted with azide-PEG3-biotin conjugate that was detected with Streptavidin IRDye® 800CW (1: 2500 dilution). (C) Quantitation of HPG signal normalized to total protein loaded per lane. Statistical significance of differences in mean total HPG incorporation (normalized to total protein) was determined with Student’s t-test.
Mid-logarithmic phase trypanosomes were rinsed and resuspended (5×10^5 cells/mL) in methionine-free RPMI supplemented with 10% fetal bovine serum (FBS). Cells were treated with DTC25 or DTC90 concentrations of CBL0174 or CBL0187 for 15 min, followed by 1-h incubation with 4 μM (final concentration) L-Homopropargylglycine (HPG) (Cayman Chemical). Cells were washed with PBS-G (PBS containing 10 mM glucose), pelleted, and resuspended (~5 × 10^6 cells) in 50 μL of permeabilization buffer (50 mM HEPES pH 7.4, 0.025% NP-40) on ice for 30 min. The pellet was mixed with 50 μL “Click-iT reaction” cocktail (20 mM Tris buffer, pH 7.4, 5 mM CuSO4, 300 mM ascorbic acid, 140 mM NaCl, and 17.5 μM azide-PEG-biotin) at room temperature for 1 h. […] HPG-labeled proteins were detected with Streptavidin IRDye® 800CW (1: 2500) and visualized on a Li-Cor® Odyssey CLx near-infrared fluorescence imaging system ([Sanz-Rodriguez et al., 2022]).

[5] = tested on: Trypanosoma brucei Lister427; assay: Recovery of trypanosome proliferation after 6-h exposure to Cmax or AUC0–6h amounts in 50% serum; assay type: cell-based; details: for Trypanocidal or cytostatic outcome: 6-h treatment with Cmax equivalents
Experimental: Recovery of trypanosome proliferation after a 6-h exposure to curaxins
The in vivo plasma exposure of trypanosomes to drug is expressed as area under the curve (AUC) in pharmacokinetic analysis. Theoretically, the same drug exposures in vitro and in vivo will be achieved within 6 h if the in vitro compound concentration × 6 h value was equal to in vivo AUC0–6h. […] AUC0–6h unbound is equal to the AUC0–6h × fraction of drug unbound to plasma (PFU) (Table 4).
Trypanosomes (1 × 10^5/mL) were treated with a concentration equivalent of the AUC0–6h unbound (Table 4) of each compound. After 6 h, cells were washed and resuspended (1 × 10^5 cells/mL) in drug-free medium. […] Proliferation recovery time was recorded post drug wash-off as described above.

T. brucei Lister427 [6] = assay: Delayed trypanocidal assay (6 h exposure, wash-off); assay type: cell-based, Trypanosoma brucei; details: starting cell density 1 × 10^5/mL instead of 5 × 10^5/mL
[7] = 6 h treatment at 5 × 10^5/mL, wash-off, survival tracked 24 h
[8] = 6-h treatment with Cmax amount (CBL0137 1.85, CBL0174 1.04, CBL0187 0.72 μM), 50% serum, NR = no recovery 84 h after wash-off

| SMILES | microsomal CLint at 1 μM [1] [µL/min/mg] | DTC25 (Figure 1) (T. brucei Lister427 [2]) | DTC50 (Figure 1) (T. brucei Lister427 [2]) | DTC90 (Figure 1) (T. brucei Lister427 [2]) | DTC50 (concentration causing 50% cidality) (T. brucei Lister427 [2]) [µM] | DTC50 T. brucei Lister427 (T. brucei Lister427 [2]; [7]) [nM] | DTC90 T. brucei Lister427 (T. brucei Lister427 [2]; [7]) [nM] | Kp ([3]; brain, oral) | Kp ([3]; in vivo, po) | Protein Synthesis affected [4] | Effect on protein synthesis [4] | Residual Translation [4] | Latency of proliferation [5] [h] | Latency of proliferation [5, 8] [h] | Trypanocidal or cytostatic outcome ([5]; 50% serum) | DTC25 T. brucei Lister427 (value in parenthesis) (T. brucei Lister427 [6]) [nM] | DTC50 T. brucei Lister427 (value in parenthesis) (T. brucei Lister427 [6]) [nM] | DTC90 T. brucei Lister427 (value in parenthesis) (T. brucei Lister427 [6]) [nM] | DTC25 T. brucei Lister427 (T. brucei Lister427 [2]; [7]) [nM] | Time to resumption of proliferation (before subtracting 18 h of control) ([5]; 6-h treatment with Cmax equivalent, 50% serum) [h] |
| --- | --- | --- | --- | --- | --- | --- | --- | --- | --- | --- | --- | --- | --- | --- | --- | --- | --- | --- | --- | --- |
| CC(=O)c1cc2c3cc(C(C)=O)c(O)cc3n(CCCN(C)C)c2cc1O [CBL0174, 1-[6-acetyl-9-[3-(dimethylamino)propyl]-2,7-dihydroxy-carbazol-3-yl]ethanone] | 4.89 | 48 | 110 | 600 | 0.11 | 110 | 600 | 26.9 | 27.9 | No | did not prevent mRNA translation | 0.94 | 66 | 66 | cytostatic | 60 | 122 | 513 | – | – |
| CC(=O)c1cc2c3cc(C(C)=O)c(O)cc3n(CCNC(C)C)c2cc1O [CBL0187, 1-[6-acetyl-2,7-dihydroxy-9-[2-(isopropylamino)ethyl]carbazol-3-yl]ethanone] | 12.4 | 54 | 110 | 550 | 0.11 | 110 | 550 | 15.9 | – | No | inhibited protein synthesis | 0.72 | 30 | 6 | not trypanocidal | 41 | 98 | 592 | 54 | 24 |
